# Experimental data reported in EP2181708A1, “Use of Valproate for reducing CHOP levels, particularly in a mammal having SCI” (Universitat Autonoma de Barcelona, priority 2008, dated 2010).
# Columns and labels:
# CHOP [1] = test: Tunicamycin-induced ER stress in primary fibroblasts, Western blot of CHOP; type: cell-based, rat; settings: primary fibroblast cells, 3 µg/ml tunicamycin, valproate
# Description: (§1) Primary fibroblasts obtained from rat sciatic nerve and HEK cell line were cultured in Dulbecco's modified Eagle's/F-12 medium supplemented with 10% fetal calf serum (Gibco). Fibroblasts were treated with 3 µg/mL of tunicamycin (Sigma) for 4 h and harvested in RIPA buffer for protein extraction.
# (§2) We have recently reported that SCI triggers an unbalanced UPR characterized by unchanged levels of BiP/Grp78 levels but progressive accumulation of the pro-apoptotic protein CHOP, with maximal CHOP levels found at 3 days post-injury in the weight-drop contusion model (Penas et al, 2007). In this study, we used a contusion model using an impactor device to specifically control the force (either 150 KDyn or 250 KDyn) to be apply on the T8 laminectomized spinal cord segment. We analyzed the spinal cord 8 mm-length segment that includes the lesion epicenter from sham-operated animals and from VPA treated or vehicle treated SCI animals at 3 days after operation. […] Thus, we increased the amount of VPA administered to 300 mg/kg every 12 h, as reported previously for a brain stroke rat model (Kim et al, 2007), and analyzed the effect using two different contusion forces of 150 and 250 KDyn. We observed that the levels of CHOP were directly proportional to the severity of the lesion; the more severe, the higher the level. […]
# [2] = test system: acetylated histone-3 (acetyl-H3); test: Western blot of acetylated histone-3 in spinal cord after contusion SCI; type: in vivo, Sprague-Dawley rats; settings: 250 Kdyn contusion, VPA every 12 h, vs SCI without VPA
# Description: (§3) Adult females Sprague-Dawley rats aged 11 weeks (220-250 g) were anesthetized with pentobarbital (40 mg/kg i.p.). When unresponsive, the vertebral column was exposed and a laminectomy carried out at T8-T9 levels. Rostral T7 and caudal T10 vertebral bodies were clamped with Adson stabilizing forceps, and carefully adjusted to level the spinal cord in the horizontal plane. A contusion injury was performed using the Infinite Horizon impactor device (Precision Scientific Instruments, Lexington, KY). The stainless steel impounder tip was placed at 3-4 mm above the exposed spinal cord, and then a fast impact produced applying forces of 150 or 250 kilodynes (KDyn) to the exposed spinal cord. The wound was sutured with 5-0 silk thread in the muscular plane and the skin was closed with small clips and disinfected with povidone iodine solution. Sham-operated animals received the same surgical procedure but sustained no impact injury; the spinal cord was left exposed for 5 min. The animals were maintained in a warm environment until full recovery, and received preventive antibiotic (amoxicyline) and analgesic (buprenorphine) treatment. […]
# (§4) Rats were re-anesthetised and decapitated at 3 dpo for sample preparation. […] After clearance, protein concentration was measured by the BCA method assay (BCA Protein Assay kit, Pierce). […]
# CHOP [3] = test: Western blot of CHOP in spinal cord after contusion SCI; type: in vivo, Sprague-Dawley rats
# Description: Adult females Sprague-Dawley rats aged 11 weeks (220-250 g) were anesthetized with pentobarbital (40 mg/kg i.p.). When unresponsive, the vertebral column was exposed and a laminectomy carried out at T8-T9 levels. Rostral T7 and caudal T10 vertebral bodies were clamped with Adson stabilizing forceps, and carefully adjusted to level the spinal cord in the horizontal plane. A contusion injury was performed using the Infinite Horizon impactor device (Precision Scientific Instruments, Lexington, KY). The stainless steel impounder tip was placed at 3-4 mm above the exposed spinal cord, and then a fast impact produced applying forces of 150 or 250 kilodynes (KDyn) to the exposed spinal cord. The wound was sutured with 5-0 silk thread in the muscular plane and the skin was closed with small clips and disinfected with povidone iodine solution. Sham-operated animals received the same surgical procedure but sustained no impact injury; the spinal cord was left exposed for 5 min. The animals were maintained in a warm environment until full recovery, and received preventive antibiotic (amoxicyline) and analgesic (buprenorphine) treatment. All animals were kept under standard conditions of light and temperature and fed with food and water ad libitum. The procedures involving animals were approved by the Ethics Committee of our institution, and followed the European Communities Council Directive 86/609/EEC.
# VPA was intraperitoneally administered at an initial dose of 150 mg/kg by 3 h after surgery, and then a dose of 300 mg/Kg either every 24 h or every 12 h during the first week post-surgery, following by a dose of 300 mg/Kg every 24 h for the next two weeks. Groups of rats subjected to SCI or sham operation received VPA or saline injections following the same regime. […]
# as §4
# CHOP [4] = test: Tunicamycin-induced ER stress in HEK cell line, Western blot of CHOP; type: cell-based; settings: 3 µg/ml tunicamycin, valproate
# Description: as §1, §2
# ATF4 = test: Western blot of ATF4 in spinal cord after contusion SCI; type: in vivo, Sprague-Dawley rats; settings: VPA-treated injured spinal cords compared with vehicle-treated ones
# Description: as §3, with “min.” for “min. The animals were maintained in a warm environment until full recovery, and received preventive antibiotic (amoxicyline) and analgesic (buprenorphine) treatment.”
# Rats were re-anesthetised and decapitated at 3 dpo for sample preparation. […] After clearance, protein concentration was measured by the BCA method assay (BCA Protein Assay kit, Pierce). […] The membrane was visualized by enhanced chemiluminiscence (ECL) method and the images analyzed with Gene Snap and Gene Tools software, and Gene Genome apparatus (Syngene). […]
# BiP/Grp78 = test: Western blot of BiP/Grp78 in spinal cord after contusion SCI; type: in vivo, Sprague-Dawley rats
# Description: as §3, §4
# [5] = VPA 300 mg/kg every 12 h i.p., contusion 150 and 250 KDyn, three days post-injury
# [6] = VPA 300mg/kg once per day i.p., vs saline, 3 days post-injury
structure (smiles),measurement,setting,value
"CCCC(CCC)C(=O)O [VPA, 2-propylpentanoic acid]",CHOP accumulation promoted by tunicamycin,CHOP [1],can be attenuated
same,levels of acetylated H3,[2],further increased
same,CHOP levels,CHOP [3]; [5],significantly reduced
same,"CHOP level reduction, 250 KDyn versus 150 KDyn contusion","CHOP [3]; VPA 300 mg/kg every 12 h i.p., three days post-injury",more pronounced
same,CHOP levels,CHOP [3]; [6],did not produce changes
same,CHOP accumulation promoted by tunicamycin,CHOP [4],can be attenuated
same,levels of ATF4,ATF4,significantly higher levels
same,BiP levels,BiP/Grp78; [5],not able to alter
same,BiP levels,BiP/Grp78; [6],did not produce changes
